Patent publication US20020049223A1, “Quinoline and naphthyridine carboxylic acid antibacterials” (priority 1999, published 2002)

Legend:
Test in all cases: Assay B: in vitro antibacterial activity, broth microdilution MIC (NCCLS)
Format in all cases: cell-based
[1] = system: Enterococcus faecalis PIU 1967; conditions: Table 2, Assay B, cation-adjusted Mueller Hinton broth, 35° C., 16 to 20 hr; code B = Enterococcus faecalis PIU 1967; unit assumed
Procedure, shortened: (§1)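 NCCLS broth microdilution with two-fold dilutions in cation-adjusted Mueller Hinton broth, inoculum about 5×10^5 CFU/mL, 35 °C in ambient air for 16-20 h; MIC read visually as lowest concentration completely inhibiting growth. S. pneumoniae: 3% lysed horse blood, 20-24 h; H. influenzae: 5 g/L yeast extract, 0.3 mmol/L hematin, 15 mg/L NAD, 20-24 h.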

Escherichia coli JUHL = conditions: Table 2, Assay B, cation-adjusted Mueller Hinton broth, 35° C., 16 to 20 hr; code D = Escherichia coli JUHL; unit assumed
Procedure, shortened: as §1

[2] = system: Haemophilus influenzae DILL AMP R; conditions: Table 2, Assay B, Mueller Hinton broth with yeast extract, hematin and NAD, 20 to 24 hr; code E = Haemophilus influenzae DILL AMP R; unit assumed
Procedure, shortened: as §1

[3] = system: Staphylococcus aureus ATCC 6538P; conditions: Table 2, Assay B, cation-adjusted Mueller Hinton broth, 35° C., 16 to 20 hr; code A = Staphylococcus aureus ATCC 6538P; unit assumed
Procedure, shortened: as §1

[4] = system: Streptococcus pneumoniae ATCC 6303; conditions: Table 2, Assay B, Mueller Hinton broth with 3% lysed horse blood, 20 to 24 hr; code F = Streptococcus pneumoniae ATCC 6303; unit assumed
Procedure, shortened: as §1

Row | SMILES | Antibacterial Activity (MIC's), B [1] [µg/mL] | Antibacterial Activity (MIC's), D (Escherichia coli JUHL) [µg/mL] | Antibacterial Activity (MIC's), E [2] [µg/mL] | Antibacterial Activity (MIC's), A [3] [µg/mL] | Antibacterial Activity (MIC's), F [4] [µg/mL]
1 | Nc1cc(-c2cc3c(s2)C(N)CCC3)c(F)c2c1c(=O)c(C(=O)O)cn2C1CC1.O=C(O)C(F)(F)F (stereo not drawn) [Example 349, 5-amino-7-(7-amino-4,5,6,7-tetrahydro-1-benzothien-2-yl)-1-cyclopropyl-8-fluoro-4-oxo-1,4-dihydroquinoline-3-carboxylic acid trifluoroacetic acid salt] | 0.125 | 0.03 | ≤ 0.004 | 0.015 | 0.03
2 | Cl.NC1CCCc2cc(-c3cc4c(cc3F)c(=O)c(C(=O)O)cn4C3CC3)sc21 (stereo not drawn) [Example 310, 7-(7-amino-4,5,6,7-tetrahydro-1-benzothien-2-yl)-1-cyclopropyl-6-fluoro-4-oxo-1,4-dihydroquinoline-3-carboxylic acid hydrochloride] | 0.015 | 0.015 | 0.015 | 0.008 | 0.008
3 | CON=C1CCCc2cc(-c3ccc4c(=O)c(C(=O)O)cn(C5CC5)c4c3OC)sc21 [Example 63, 1-cyclopropyl-8-methoxy-7-((7E/Z)-7-(methoxyimino)-4,5,6,7-tetrahydro-1-benzothien-2-yl)-4-oxo-1,4-dihydro-3-quinolinecarboxylic acid] | 0.125 | 0.05 | 0.06 | 0.015 | 0.25
4 | O=C(O)c1cn(C2CC2)c2c(F)c(-c3cc4c(s3)CCCC4O)c(F)cc2c1=O (stereo not drawn) [Example 294, 1-cyclopropyl-6,8-difluoro-7-(4-hydroxy-4,5,6,7-tetrahydro-1-benzothien-2-yl)-4-oxo-1,4-dihydroguinoline-3-carboxylic acid] | 0.015 | 0.03 | ≤ 0.004 | ≤ 0.004 | 0.03
5 | COc1c(-c2cc3c(s2)CCC(CN)C3)ccc2c(=O)c(C(=O)O)cn(C3CC3)c12.Cl (stereo not drawn) [Example 70, 7-(5-(aminomethyl)-4,5,6,7-tetrahydro-1-benzothien-2-yl)-1-cyclopropyl-8-methoxy-4-oxo-1,4-dihydro-3-quinolinecarboxylic acid hydrochloride] | 0.03 | 0.125 | 0.015 | 0.03 | 0.06
6 | Cc1c(-c2cc3c(s2)C(O)CCC3)c(F)cc2c(=O)c(C(=O)O)cn(C3CC3)c12 (stereo not drawn) [Example 369, 1-cyclopropyl-6-fluoro-7-(7-hydroxy-4,5,6,7-tetrahydro-1-benzothien-2-yl)-8-methyl-4-oxo-1,4-dihydroquinoline-3-carboxylic acid] | 0.03 | 0.06 | ≤ 0.004 | ≤ 0.004 | 0.03
7 | Cc1c(-c2cc3c(s2)C(N)CCC3)c(F)cc2c(=O)c(C(=O)O)cn(C3CC3)c12.Cl (stereo not drawn) [Example 368, 7-(7-amino-4,5,6,7-tetrahydro-1-benzothien-2-yl)-1-cyclopropyl-6-fluoro-8-methyl-4-oxo-1,4-dihydroquinoline-3-carboxylic acid hydrochloride] | 0.06 | 0.03 | ≤ 0.004 | 0.015 | 0.03
8 | COc1c(-c2cc3c(s2)CCCC3NS(C)(=O)=O)ccc2c(=O)c(C(=O)O)cn(C3CC3)c12 (stereo not drawn) [Example 88, 1-cyclopropyl-8-methoxy-7-(4-((methylsulfonyl)amino)-4,5,6,7-tetrahydro-1-benzothien-2-yl)-4-oxo-1,4-dihydro-3-quinolinecarboxylic acid] | 0.25 | 1 | 0.125 | 0.015 | 0.125
9 | COc1c(-c2cc3c(s2)CCCC3=NNC2=NCCN2)ccc2c(=O)c(C(=O)O)cn(C3CC3)c12 [Example 100, 1-cyclopropyl-7-((4E/Z)-4-(4,5-dihydro-1H-imidazol-2-ylhydrazono)-4,5,6,7-tetrahydro-1-benzothien-2-yl)-8-methoxv-4-oxo-1,4-dihydro-3-quinolinecarboxylic acid] | 0.5 | 0.25 | 0.125 | 0.06 | 0.03
10 | COc1c(-c2cc3c(s2)CCCC3N2CC(O)C2)ccc2c(=O)c(C(=O)O)cn(C3CC3)c12.Cl (stereo not drawn) [Example 198, 1-cyclopropyl-7-(4-(3-hydroxy-1-azetidinyl)-4,5,6,7-tetrahydro-1-benzothien-2-yl)-8-methoxy-4-oxo-1,4-dihydro-3-guinolinecarboxvlic acid hydrochloride] | 0.25 | 0.5 | 0.25 | 0.25 | 0.125
11 | COc1c(-c2cc3c(s2)C(O)CCC3)c(F)cc2c(=O)c(C(=O)O)cn(C3CC3)c12 (stereo not drawn) [Example 299, 1-cyclopropyl-6-fluoro-7-(7-hydroxy-4,5,6,7-tetrahydro-1-benzothien-2-yl)-8-methoxy-4-oxo-1,4-dihydroquinoline-3-carboxylic acid] | 0.06 | 0.125 | 0.03 | ≤ 0.004 | 0.06
12 | CNC1CCCc2sc(-c3ccc4c(=O)c(C(=O)O)cn(C5CC5)c4c3Cl)cc21.Cl (stereo not drawn) [Example 361, 8-chloro-1-cyclopropyl-7-(4-(methylamino)-4,5,6,7-tetrahydro-1-benzothien-2-yl)-4-oxo-1,4-dihydroquinoline-3-carboxylic acid hydrochloride] | 0.06 | 0.06 | 0.015 | 0.015 | 0.03
13 | CON=C1Cc2cc(-c3ccc4c(=O)c(C(=O)O)cn(C5CC5)c4c3OC)sc2C1 [Example 248, 1-cyclopropyl-8-methoxy-7-((5E/Z)-5-(methoxyimino)-5,6-dihydro-4H-cyclopenta[b]thien-2-yl)-4-oxo-1,4-dihydro-3-quinolinecarboxylic acid] | 0.25 | 2 | 0.5 | 0.03 | 0.5
14 | COc1c(-c2cc3c(s2)C(N)C(C)(C)CC3)ccc2c(=O)c(C(=O)O)cn(C3CC3)c12.Cl (stereo not drawn) [Example 245, 7-(7-amino-6,6-dimethyl-4,5,6,7-tetrahydro-1-benzothien-2-yl)-1-cyclopropyl-8-methoxy-4-oxo-1,4-dihydro-3-quinolinecarboxylic acid hydrochloride] | 0.25 | 0.25 | 0.06 | 0.004 | 0.125
15 | Cl.NC1CCCc2sc(-c3cc4c(cc3F)c(=O)c(C(=O)O)cn4C3CC3)cc21 (stereo not drawn) [Example 307, 7-(4-amino-4,5,6,7-tetrahydro-1-benzothien-2-yl)-1-cyclopropyl-6-fluoro-4-oxo-1,4-dihydroquinoline-3-carboxylic acid hydrochloride] | 0.03 | 0.03 | 0.015 | 0.008 | 0.008
16 | COc1c(-c2cc3c(s2)C(N)CNC3)ccc2c(=O)c(C(=O)O)cn(C3CC3)c12 (stereo not drawn) [Example 208, 7-(7-amino-4,5,6,7-tetrahydrothieno[3,2-c]pyridin-2-yl)-1-cyclopropyl-8-methoxy-4-oxo-1,4-dihydro-3-quinolinecarboxylic acid] | 0.5 | 0.25 | 0.06 | 0.125 | 0.25
17 | COc1c(-c2cc3c(s2)CCCC3N2CC(N)C2)ccc2c(=O)c(C(=O)O)cn(C3CC3)c12.Cl.Cl (stereo not drawn) [Example 212, 7-[4-(3-amino-1-azetidinyl)-4,5,6,7-tetrahydro-1-benzothien-2-yl]-1-cyclopropyl-8-methoxy-4-oxo-1,4-dihydro-3-quinolinecarboxylic acid dihydrochloride] | 0.5 | 0.5 | 0.25 | 0.125 | 0.125
18 | COc1c(-c2cc3c(s2)S(=O)(=O)N(C)CC3O)ccc2c(=O)c(C(=O)O)cn(C3CC3)c12 (stereo not drawn) [Example 102, 1-cyclopropyl-7-(4-hydroxy-2-methyl-1,1-dioxido-3,4-dihydro-2H-thieno[3,2-e][1,2]thiazin-6-yl)-8-methoxy-4-oxo-1,4-dihydro-3-quinolinecarboxylic acid] | 1 | 8 | 0.03 | 0.25 | 0.5
